Measurements as given in US10414811B2, “Protease-resistant lipidated GLP-1 analogs” (MEDIMMUNE LIMITED, priority 2015, dated 2019).
Where two headings read alike, the source gives them in different places. Numbered stars: 1 amine (or outer) side, 2 acyl side, 3 side chain; on linkers, the order of the positions; unused ones are H or OH. Square brackets hold non-standard residues; d marks the D form. Side chains are listed from the residue outwards. Peptide text beside a SMILES is read from it. * marks the point of attachment. γGlu = O=C(O)[C@H](CCC(=O)[*:2])N[*:1]; αMeF = C[C@](N)(Cc1ccccc1)C(=O)O; αMeK = C[C@](N)(CCCCN)C(=O)O; Lauroyl = CCCCCCCCCCCC(=O)*; αMeS = C[C@](N)(CO)C(=O)O; AEEA = NCCOCCOCC(=O)O; Aib = CC(C)(N)C(=O)O

Legend:
Format in all cases: cell-based
[1] = molecular target: T1, human glucagon receptor (GCGR) (Homo sapiens, UniProt P47871); experiment: cAMP assay, human GCGR cells
T1 construct: expressed in transfected cells
Outline: (§1)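 Peptide-stimulated cAMP measured by two-step HTRF after a 30 min room-temperature incubation with receptor-expressing cells (hGLP-1R, hGIPR at 1×10^5 cells/ml; hGCGR at 2×10^5 cells/ml). Duplicate dilutions; EC50 from 4-parameter logistic fit of % Delta F.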

GLP-1R (INS1e assay) = molecular target: T2, GLP-1R (INS1e assay) (Rattus norvegicus, UniProt P32301); experiment: INS1e assay, cAMP activity at GLP-1R
T2 construct: endogenous in cells; host or cells: INS-1E cells
T2 sequence (P32301 22-463): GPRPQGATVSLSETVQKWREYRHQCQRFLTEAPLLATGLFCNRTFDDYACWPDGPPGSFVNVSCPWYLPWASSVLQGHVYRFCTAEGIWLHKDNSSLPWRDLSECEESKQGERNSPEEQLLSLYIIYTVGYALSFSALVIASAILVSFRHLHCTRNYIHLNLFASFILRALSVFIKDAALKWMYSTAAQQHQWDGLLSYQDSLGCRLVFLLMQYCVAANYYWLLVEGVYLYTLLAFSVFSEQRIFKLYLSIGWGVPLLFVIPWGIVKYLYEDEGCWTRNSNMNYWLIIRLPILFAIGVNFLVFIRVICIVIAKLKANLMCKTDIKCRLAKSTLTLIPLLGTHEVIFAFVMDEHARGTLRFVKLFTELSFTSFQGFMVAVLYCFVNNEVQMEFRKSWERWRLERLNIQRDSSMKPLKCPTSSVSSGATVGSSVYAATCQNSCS
Outline: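 It pairs cAMP-d2 acceptor with anti-cAMP cryptate donor, both prepared 1/20 in conjugate/lysis buffer, applied as a two-step protocol.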

[2] = molecular target: T3, human GLP-1 receptor (GLP-1R) (Homo sapiens, UniProt P43220); experiment: cAMP assay, human GLP-1R cells
T3 construct: expressed in transfected cells
Outline: as §1

[3] = molecular target: T4, human glucose-dependent insulinotropic peptide receptor (GIPR) (Homo sapiens, UniProt P48546); experiment: cAMP assay, human GIPR cells
T4 construct: expressed in transfected cells
T4 sequence (P48546 22-466): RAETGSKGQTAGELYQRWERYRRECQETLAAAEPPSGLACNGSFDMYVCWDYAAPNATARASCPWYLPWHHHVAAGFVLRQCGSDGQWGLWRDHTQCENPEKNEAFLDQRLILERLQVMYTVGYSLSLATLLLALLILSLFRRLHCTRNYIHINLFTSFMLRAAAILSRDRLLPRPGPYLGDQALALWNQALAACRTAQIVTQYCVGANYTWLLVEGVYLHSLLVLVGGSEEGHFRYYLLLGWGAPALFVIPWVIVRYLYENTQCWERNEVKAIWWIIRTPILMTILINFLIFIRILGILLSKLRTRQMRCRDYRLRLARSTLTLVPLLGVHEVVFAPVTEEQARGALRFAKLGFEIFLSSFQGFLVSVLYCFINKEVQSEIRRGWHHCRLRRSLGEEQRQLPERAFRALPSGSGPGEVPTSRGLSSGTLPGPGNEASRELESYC
Outline: as §1

[4] = mono-lipidated peptides, mean of n1 and n2, read-out: INS1e assay EC50 Mean pM GLP-1R
[5] = mono-lipidated peptides, replicate n1, read-out: INS1e assay EC50 GLP-1R n1
[6] = mono-lipidated peptides, replicate n2, read-out: INS1e assay EC50 GLP-1R n2
[7] = mean of n1 and n2, read-out: Mean pM GLP-1R
[8] = cAMP assay, first determination (n1), read-out: Primary assay EC50 Gluc-R (n1)
[9] = cAMP assay, second determination (n2), read-out: Primary assay EC50 Gluc-R (n2)
[10] = cAMP assay, first determination (n1), read-out: Primary assay EC50 GLP-1R n1
[11] = cAMP assay, second determination (n2), read-out: Primary assay EC50 GLP-1R n2
[12] = cAMP assay, first determination (n1), read-out: Primary assay EC50 GIP-R (n1)
[13] = cAMP assay, second determination (n2), read-out: Primary assay EC50 GIP-R (n2)

T3 sequence (P43220 24-463): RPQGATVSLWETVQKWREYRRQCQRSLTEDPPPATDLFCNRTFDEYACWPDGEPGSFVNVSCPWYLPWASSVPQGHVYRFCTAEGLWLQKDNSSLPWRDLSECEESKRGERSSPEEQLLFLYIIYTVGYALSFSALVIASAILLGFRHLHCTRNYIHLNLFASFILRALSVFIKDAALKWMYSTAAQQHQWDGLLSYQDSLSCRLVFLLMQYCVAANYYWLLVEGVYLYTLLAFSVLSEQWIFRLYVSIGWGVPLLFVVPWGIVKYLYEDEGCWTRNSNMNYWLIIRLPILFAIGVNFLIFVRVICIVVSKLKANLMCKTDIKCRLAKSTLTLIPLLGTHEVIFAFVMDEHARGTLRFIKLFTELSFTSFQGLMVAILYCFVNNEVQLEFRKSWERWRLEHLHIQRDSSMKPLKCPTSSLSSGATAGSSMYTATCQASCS
T1 sequence (P47871 26-477): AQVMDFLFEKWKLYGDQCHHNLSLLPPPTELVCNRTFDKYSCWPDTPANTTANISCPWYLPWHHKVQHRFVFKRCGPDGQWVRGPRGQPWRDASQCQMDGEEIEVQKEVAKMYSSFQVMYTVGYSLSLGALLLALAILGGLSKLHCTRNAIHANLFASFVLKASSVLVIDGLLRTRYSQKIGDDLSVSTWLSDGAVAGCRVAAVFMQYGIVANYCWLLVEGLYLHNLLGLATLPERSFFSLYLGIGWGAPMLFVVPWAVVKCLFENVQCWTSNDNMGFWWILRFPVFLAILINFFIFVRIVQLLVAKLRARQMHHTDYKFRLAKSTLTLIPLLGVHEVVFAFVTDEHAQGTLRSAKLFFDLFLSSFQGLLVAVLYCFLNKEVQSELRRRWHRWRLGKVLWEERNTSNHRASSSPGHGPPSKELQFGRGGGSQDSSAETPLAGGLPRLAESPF

| SMILES | EC50 (GLP-1R (INS1e assay); [4]) | EC50 (GLP-1R (INS1e assay); [5]) | EC50 (GLP-1R (INS1e assay); [6]) | EC50 [2, 7] | EC50 [1, 8] | EC50 [1, 9] | EC50 [2, 10] | EC50 [2, 11] | EC50 [3, 12] | EC50 [3, 13] | other results |
| --- | --- | --- | --- | --- | --- | --- | --- | --- | --- | --- | --- |
| CC[C@H](C)[C@H](NC(=O)[C@](C)(Cc1ccccc1)NC(=O)[C@H](CCC(=O)O)NC(=O)[C@](C)(CCCCN)NC(=O)[C@H](C)NC(=O)[C@H](C)NC(=O)[C@H](CCC(=O)O)NC(=O)CNC(=O)[C@H](CCC(=O)O)NC(=O)[C@H](CC(C)C)NC(=O)[C@](C)(Cc1ccccc1)NC(=O)[C@H](CO)NC(=O)[C@](C)(CO)NC(=O)[C@@H](NC(=O)[C@H](CC(=O)O)NC(=O)[C@H](CO)NC(=O)[C@@H](NC(=O)[C@](C)(Cc1ccccc1)NC(=O)[C@H](CO)NC(=O)CNC(=O)[C@H](CCC(=O)O)NC(=O)C(C)(C)NC(=O)[C@@H](N)Cc1c[nH]cn1)[C@@H](C)O)C(C)C)C(=O)N[C@@H](C)C(=O)N[C@@](C)(Cc1ccccc1)C(=O)N[C@H](C(=O)N[C@H](C(=O)N[C@@H](CCCCNC(=O)COCCOCCNC(=O)COCCOCCNC(=O)CCCCCCCCCCCCCCCCC(=O)O)C(=O)NCC(=O)NCC(N)=O)C(C)C)C(C)C [compound 198] | 1140 pM | 1380 pM | 890 pM | 27.9 pM |  |  |  |  |  |  | EC50 ([1]; first run (n1), cAMP activity of substituted and mono-lipidated peptides, read-out: Primary assay EC50 Gluc-R): ≥ 26 nM; EC50 ([1]; second run (n2), cAMP activity, read-out: Primary assay EC50 Gluc-R): ≥ 26 nM; EC50 ([2]; first run (n1), cAMP activity, read-out: Primary assay EC50 GLP-1R n1): 41 pM; EC50 ([2]; second run (n2), cAMP activity, read-out: Primary assay EC50 GLP-1R n2): 15 pM; EC50 ([3]; first run (n1), cAMP activity, read-out: Primary assay EC50 GIP-R): ≥ 26 nM; EC50 ([3]; second run (n2), cAMP activity, read-out: Primary assay EC50 GIP-R): ≥ 26 nM |
| CCCCCCCCCCCCCCCC(=O)N[C@@H](CCC(=O)NCCCC[C@H](NC(=O)[C@H](CO)NC(=O)[C@](C)(CO)NC(=O)[C@@H](NC(=O)[C@H](CC(=O)O)NC(=O)[C@H](CO)NC(=O)[C@@H](NC(=O)[C@](C)(Cc1ccccc1)NC(=O)[C@H](CO)NC(=O)CNC(=O)[C@H](CCC(=O)O)NC(=O)C(C)(C)NC(=O)[C@@H](N)Cc1c[nH]cn1)[C@@H](C)O)C(C)C)C(=O)N[C@@H](CC(C)C)C(=O)N[C@@H](CCC(=O)O)C(=O)NCC(=O)N[C@@H](CCC(=O)O)C(=O)N[C@@H](C)C(=O)N[C@@H](C)C(=O)N[C@@](C)(CCCCN)C(=O)N[C@@H](CCC(=O)O)C(=O)N[C@@](C)(Cc1ccccc1)C(=O)N[C@H](C(=O)N[C@@H](C)C(=O)N[C@@](C)(Cc1ccccc1)C(=O)N[C@H](C(=O)N[C@H](C(=O)N[C@@](C)(CCCCN)C(=O)NCC(=O)NCC(N)=O)C(C)C)C(C)C)[C@@H](C)CC)C(=O)O [compound 87] | 53 pM | 43.6 pM | 62.2 pM | 1.6 pM | ≥ 28 nM | ≥ 28 nM | 1.6 pM | 1.6 pM | ≥ 28 nM | ≥ 28 nM |  |
| CCCCCCCCCCCC(=O)N[C@@H](CCC(=O)NCCOCCOCC(=O)NCCOCCOCC(=O)NCCCC[C@H](NC(=O)[C@H](C)NC(=O)[C@@H](NC(=O)[C@H](Cc1ccccc1)NC(=O)[C@H](CCCCNC(=O)COCCOCCNC(=O)COCCOCCNC(=O)CC[C@H](NC(=O)CCCCCCCCCCC)C(=O)O)NC(=O)[C@](C)(CCCCN)NC(=O)[C@H](C)NC(=O)[C@H](C)NC(=O)[C@H](CCC(=O)O)NC(=O)CNC(=O)[C@H](CCC(=O)O)NC(=O)[C@H](CC(C)C)NC(=O)[C@H](CCCCNC(=O)COCCOCCNC(=O)COCCOCCNC(=O)CC[C@H](NC(=O)CCCCCCCCCCC)C(=O)O)NC(=O)[C@H](CO)NC(=O)[C@](C)(CO)NC(=O)[C@@H](NC(=O)[C@H](CC(=O)O)NC(=O)[C@H](CO)NC(=O)[C@@H](NC(=O)[C@](C)(Cc1ccccc1)NC(=O)[C@H](CO)NC(=O)CNC(=O)[C@H](CCC(=O)O)NC(=O)C(C)(C)NC(=O)[C@@H](N)Cc1c[nH]cn1)[C@@H](C)O)C(C)C)[C@@H](C)CC)C(=O)N[C@H](C(=O)N[C@H](C(=O)N[C@@H](CCC(=O)O)C(=O)NCC(=O)NCC(N)=O)C(C)C)C(C)C)C(=O)O [compound 466] (H-H[Aib]EGS[αMeF]TSDV[αMeS]SK([AEEA-AEEA-γGlu-Lauroyl])LEGEAA[αMeK]K([AEEA-AEEA-γGlu-Lauroyl])FIAK([AEEA-AEEA-γGlu-Lauroyl])VVEGG-NH2; N-terminus assumed) |  |  |  |  |  |  |  |  |  |  | EC50 ([1]; tris-lipidated peptides, first replicate, read-out: Primary assay EC50 Gluc-R (n1)): 20.2 nM; EC50 (GLP-1R (INS1e assay); tris-lipidated peptides, mean of n1 and n2, read-out: INS1e assay EC50 Mean pM GLP-1R): 3200 pM; EC50 (GLP-1R (INS1e assay); tris-lipidated peptides, replicate n1, read-out: INS1e assay EC50 GLP-1R n1): 3860 pM; EC50 (GLP-1R (INS1e assay); tris-lipidated peptides, replicate n2, read-out: INS1e assay EC50 GLP-1R n2): 2550 pM; EC50 ([2]; tris-lipidated peptides, mean of n1 and n2, read-out: Primary assay EC50 Mean pM GLP-1R): 22.4 pM; EC50 ([2]; tris-lipidated peptides, replicate n1, read-out: Primary assay EC50 GLP-1R n1): 17.2 pM; EC50 ([2]; tris-lipidated peptides, replicate n2, read-out: Primary assay EC50 GLP-1R n2): 27.5 pM; EC50 ([3]; tris-lipidated peptides, first replicate, read-out: Primary assay EC50 GIP-R (n1)): 20.2 nM |
| CCCCCCCCCCCCCCCCCC(=O)NCCOCCOCC(=O)NCCOCCOCC(=O)NCCOCCOCC(=O)NCCCC[C@H](NC(=O)[C@H](C)NC(=O)[C@H](C)NC(=O)[C@H](CCC(=O)O)NC(=O)CNC(=O)[C@H](CCC(=O)O)NC(=O)[C@H](CC(C)C)NC(=O)[C@](C)(Cc1ccccc1)NC(=O)[C@H](CO)NC(=O)[C@H](CO)NC(=O)[C@@H](NC(=O)[C@H](CC(=O)O)NC(=O)[C@H](CO)NC(=O)[C@@H](NC(=O)[C@](C)(Cc1ccccc1)NC(=O)[C@H](CO)NC(=O)CNC(=O)[C@H](CCC(=O)O)NC(=O)C(C)(C)NC(=O)[C@@H](N)Cc1c[nH]cn1)[C@@H](C)O)C(C)C)C(=O)N[C@@H](CCC(=O)O)C(=O)N[C@@](C)(Cc1ccccc1)C(=O)N[C@H](C(=O)N[C@@H](C)C(=O)N[C@@](C)(Cc1ccccc1)C(=O)N[C@H](C(=O)N[C@H](C(=O)N[C@@](C)(CCCCN)C(=O)NCC(=O)NCC(N)=O)C(C)C)C(C)C)[C@@H](C)CC [compound 52] |  | 21.4 pM |  | 2 pM | ≥ 26 nM | ≥ 26 nM | 1.5 pM | 2.5 pM | ≥ 26 nM | ≥ 26 nM |  |
| CC[C@H](C)[C@H](NC(=O)[C@](C)(Cc1ccccc1)NC(=O)[C@H](CCC(=O)O)NC(=O)[C@](C)(CCCCN)NC(=O)[C@H](C)NC(=O)[C@H](C)NC(=O)[C@H](CCC(=O)O)NC(=O)CNC(=O)[C@H](CCC(=O)O)NC(=O)[C@H](CC(C)C)NC(=O)[C@](C)(Cc1ccccc1)NC(=O)[C@H](CO)NC(=O)[C@](C)(CO)NC(=O)[C@@H](NC(=O)[C@H](CC(=O)O)NC(=O)[C@H](CO)NC(=O)[C@@H](NC(=O)[C@](C)(Cc1ccccc1)NC(=O)[C@H](CO)NC(=O)CNC(=O)[C@H](CCC(=O)O)NC(=O)C(C)(C)NC(=O)[C@@H](N)Cc1c[nH]cn1)[C@@H](C)O)C(C)C)C(=O)N[C@@H](C)C(=O)N[C@@](C)(Cc1ccccc1)C(=O)N[C@H](C(=O)N[C@H](C(=O)N[C@@H](CCCCNC(=O)COCCOCCNC(=O)COCCOCCNC(=O)CC[C@H](NC(=O)CCCCCCCCCCCCCCCCC(=O)O)C(=O)O)C(=O)NCC(=O)NCC(N)=O)C(C)C)C(C)C [compound 101] | 4060 pM | 1470 pM | 6650 pM | 55 pM | ≥ 25 nM | ≥ 25.4 nM | 58 pM | 51.2 pM | ≥ 25 nM | ≥ 25.4 nM |  |
